# Measurements published in patent US12465590B2, “Oxalamido-substituted tricyclic inhibitors of hepatitis b virus” (priority 2019, dated 2025).
# System: HBV
# Assay: not given
# Details: Phase 1b clinical studies; cited from earlier work
SMILES,HBV DNA,serum HBV RNA
O=C(Nc1cc(F)c(F)c(F)c1)c1ccc(F)c(S(=O)(=O)N2CCC(O)CC2)c1 [NVR3-778],significant reduction,significant reduction

# System: HBV
# Assay: HBV inhibition assay in HepAD38 cells (extracellular HBV DNA by direct qPCR)
# Type: cell-based, HBV genotype D subtype ayw
# Details: 96 hours, read-out: HBV inh EC50
# Text: HepAD38 cell line (Ladner et al., Antimicrob Agents Chemother, 1997, 41, 1715-20) was used for HBV inhibition assays. HepAD38 is a subclone, derived from hepatoblastoma cell line HepG2 (ATCC® Number: HB-8065), that expresses HBV genome (genotype D subtype ayw) under the transcriptional control of a tetracycline-responsive promoter in a TET-OFF system: addition of doxycycline, an antibiotic belonging to the class of tetracycline, suppresses HBV replication, while its removal switches on the process allowing HBV viral particles release in the cell supernatant. HepAD38 cell line is maintained in DMEM/F12, supplemented with 10% of fetal bovine serum, 1% of glutamine, 1% of penicillin/streptomycin, 0.4 mg/ml G418 and 0.3 ug/ml tetracycline. For the HBV inhibition assay, doxycycline-free medium is used in order to allow virion production.
# HBV inhibition activity in vitro was performed in 96 multiwell plates. During the initial (primary) screening, compounds were first tested in triplicates at concentrations of 0.02 μM, 0.1 μM, 0.5 μM and 1 μM. For selected compounds, an 8-point dose-response curve was obtained using 1:2 serial dilutions (starting from 0.01 μM, 0.1 μM, 0.4 μM or 5 μM, depending on the degree of inhibition observed during the primary screening). From the dose-response curves, half maximal effective concentration (EC50) could be calculated (see also below).
# In more detail, compounds—typically dissolved in DMSO stock solutions—were diluted to 2× the final desired concentration in 100 μl of the above medium (without doxycycline) and plated in three replicates in the 96-well plates.
# Simultaneously, HepAD38 cells—extensively pre-washed in doxycycline-free medium in order to induce HBV production—were suspended at 2*10^4 cells in 100 μl of doxycycline-free medium and added to each well of the plate, to yield a final assay volume of 200 μl.
# DMSO, used for stock solutions and compounds dilutions, was always present in the assays at a final concentration of 0.5%.
# Plates were then incubated 96 hours at 37° C. and then subjected to cell viability assays and extracellular HBV quantification, in order to evaluate both the cytotoxic potential and the antiviral activity of compounds.
# Cytotoxicity was assessed by a commercial fluorescence assay that measures the metabolic activity of cells, directly related to cell viability (Cell Titer Blue, Promega). For each compound, cytotoxicity was evaluated at the same concentration employed to evaluate its anti-HBV activity. Anti-HBV activity was evaluated by quantification of extracellular HBV DNA with direct qPCR. In particular, supernatant was collected and centrifuged for cell debris clarification, viral DNA was extracted from virions by addition of lysis buffer (1 mM 1,4-dithiothreitol, 0.2% sodium dodecyl sulphate) and incubated at 95° C. for 10 min. Samples were then diluted 1:40 and real time PCR amplification was performed with SYBR green assay (Power SYBR™ Green PCR Master Mix-Thermo Fisher Scientific) and specific HBV primer (HBV-DF:5′-[…]-3′ (SEQ ID No. 1), HBV-DR:5′-[…]-3′ (SEQ ID No. 2)).
# Antiviral activity data for each compound are reported as EC50 value (see Table 1 legend). Excel and Graphpad Prism programs are typically used for data elaboration and EC50 calculation.
row,SMILES,EC50
1,"Cc1cc(NC(=O)c2c3c(cn2C)S(=O)(=O)NC2CN(C(=O)C(=O)N[C@@H](C)C(F)(F)F)CCC2CO3)ccc1F (mixture of isomers) [Example E71, Trans-N-(4-fluoro-3-methylphenyl)-2-methyl-7-(2-oxo-2-(((S)-1,1,1-trifluoropropan-2-yl)amino)acetyl)-5,5a,6,7,8,9,9a,10-octahydro-2H-pyrido[3,4-f]pyrrolo[3,4-b][1,4,5]oxathiazocine-1-carboxamide 4,4-dioxide]",< 500 nM
2,"Cc1cc(NC(=O)c2c3c(cn2C)S(=O)(=O)NC2CN(C(=O)C(=O)N[C@H](C)C(F)(F)F)CCC2CO3)ccc1F (mixture of isomers) [Example E66, Trans-N-(4-fluoro-3-methylphenyl)-2-methyl-7-(2-oxo-2-(((R)-1,1,1-trifluoropropan-2-yl)amino)acetyl)-5,5a,6,7,8,9,9a,10-octahydro-2H-pyrido[3,4-f]pyrrolo[3,4-b][1,4,5]oxathiazocine-1-carboxamide 4,4-dioxide]",< 500 nM
3,"Cc1cc(NC(=O)c2c3c(cn2C)S(=O)(=O)NC2CN(C(=O)C(=O)N4CC(F)(F)C4)CCC2CO3)ccc1F (racemic) [Example E70, Trans-7-(2-(3,3-difluoroazetidin-1-yl)-2-oxoacetyl)-N-(4-fluoro-3-methylphenyl)-2-methyl-5,5a,6,7,8,9,9a,10-octahydro-2H-pyrido[3,4-f]pyrrolo[3,4-b][1,4,5]oxathiazocine-1-carboxamide 4,4-dioxide]",< 500 nM
4,"Cc1cc(NC(=O)c2c3c(cn2C)S(=O)(=O)NC2CN(C(=O)C(=O)NC4CC4)CCC2CO3)ccc1F (racemic) [Example E67, Trans-7-(2-(cyclopropylamino)-2-oxoacetyl)-N-(4-fluoro-3-methylphenyl)-2-methyl-5,5a,6,7,8,9,9a,10-octahydro-2H-pyrido[3,4-f]pyrrolo[3,4-b][1,4,5]oxathiazocine-1-carboxamide 4,4-dioxide]",< 500 nM

# Same assay, conditions: Hepatitis B virus, 96 hours, read-out: HBV inh EC50
row,SMILES,EC50
1,"Cc1cc(NC(=O)c2c3c(c(Br)n2C)S(=O)(=O)N[C@H]2CN(C(=O)C(=O)N[C@H](C)C(F)(F)F)C[C@H]2CO3)ccc1F [Example E52, (3aR,10aR)-6-bromo-N-(4-fluoro-3-methylphenyl)-7-methyl-2-(2-oxo-2-(((R)-1,1,1-trifluoropropan-2-yl)amino)acetyl)-2,3,3a,4,10,10a-hexahydro-1H,7H-dipyrrolo[3,4-b:3′,4′-f][1,4,5]oxathiazocine-8-carboxamide 5,5-dioxide]",< 500 nM
2,"Cc1cc(NC(=O)c2c3c(cn2C)S(=O)(=O)NC2CN(C(=O)C(=O)N[C@@H](C)C(F)(F)F)CCC2CO3)ccc1F (mixture of isomers) [Example E65, Cis-N-(4-fluoro-3-methylphenyl)-2-methyl-7-(2-oxo-2-(((S)-1,1,1-trifluoropropan-2-yl)amino)acetyl)-5,5a,6,7,8,9,9a,10-octahydro-2H-pyrido[3,4-f]pyrrolo[3,4-b][1,4,5]oxathiazocine-1-carboxamide 4,4-dioxide]",< 500 nM
3,"Cc1cc(NC(=O)c2c3c(cn2C)S(=O)(=O)N[C@H]2CN(C(=O)C(=O)N[C@H](C)C(F)(F)F)C[C@@]2(C)CO3)ccc1F [Example E74, (3aR,10aR)—N-(4-fluoro-3-methylphenyl)-7,10a-dimethyl-2-(2-oxo-2-(((R)-1,1,1-trifluoropropan-2-yl)amino)acetyl)-2,3,3a,4,10,10a-hexahydro-1H,7H-dipyrrolo[3,4-b:3′,4′-f][1,4,5]oxathiazocine-8-carboxamide 5,5-dioxide]",< 500 nM
4,"Cc1cc(NC(=O)c2c3c(cn2C)S(=O)(=O)NC2CN(C(=O)C(=O)N[C@H](C)C(F)(F)F)CCC2CO3)ccc1F (mixture of isomers) [Example E60, Cis-N-(4-fluoro-3-methylphenyl)-2-methyl-7-(2-oxo-2-(((R)-1,1,1-trifluoropropan-2-yl)amino)acetyl)-5,5a,6,7,8,9,9a,10-octahydro-2H-pyrido[3,4-f]pyrrolo[3,4-b][1,4,5]oxathiazocine-1-carboxamide 4,4-dioxide]",< 500 nM
5,"Cc1cc(NC(=O)c2c3c(cn2C)S(=O)(=O)N[C@H]2CN(C(=O)C(=O)N[C@H](C)C(F)(F)F)C[C@@]2(O)CO3)ccc1F [Example E75, (3aS,10aS)—N-(4-fluoro-3-methylphenyl)-10a-hydroxy-7-methyl-2-(2-oxo-2-(((R)-1,1,1-trifluoropropan-2-yl)amino)acetyl)-2,3,3a,4,10,10a-hexahydro-1H,7H-dipyrrolo[3,4-b:3′,4′-f][1,4,5]oxathiazocine-8-carboxamide 5,5-dioxide]",< 500 nM
6,"Cc1cc(NC(=O)c2c3c(cn2C)S(=O)(=O)NC2CCN(C(=O)C(=O)N[C@H](C)C(F)(F)F)CC2CO3)ccc1F (mixture of isomers) [Example E59, Trans-N-(4-fluoro-3-methylphenyl)-2-methyl-8-(2-oxo-2-(((R)-1,1,1-trifluoropropan-2-yl)amino)acetyl)-5,5a,6,7,8,9,9a,10-octahydro-2H-pyrido[4,3-f]pyrrolo[3,4-b][1,4,5]oxathiazocine-1-carboxamide 4,4-dioxide]",< 500 nM
7,"Cc1cc(NC(=O)c2c3c(cn2C)S(=O)(=O)NC2CCN(C(=O)C(=O)NCC(F)(F)F)CC2CO3)ccc1F (racemic) [Example E57, Trans-N-(4-fluoro-3-methylphenyl)-2-methyl-8-(2-oxo-2-((2,2,2-trifluoroethyl)amino)acetyl)-5,5a,6,7,8,9,9a,10-octahydro-2H-pyrido[4,3-f]pyrrolo[3,4-b][1,4,5]oxathiazocine-1-carboxamide 4,4-dioxide]",< 500 nM
